Data taken from PubChem BioAssay AID1117332.
Activity calls are given as the source filed them. No rule for the calls is given here.

system: HCT116 viability, CellTiter-Glo ATP luminescence; assay: cytotoxicity toward HCT116 cells – cell-based, CellTiter-Glo luminescence, IC50, dose response (AID 1117332)

| Compound | IC50 |
| --- | --- |
| Cc1ccc([N+](=O)[O-])[c]2c1[O][Hg]2 | 2830 nM |
| CCCCCCCCCCCCCC[N+](C)(C)C | 2290 nM |
| O=C(O)C1(C(=O)O)CCC1.[NH2-].[NH2-].[Pt+2] | > 20000 nM (inactive) |
| OCCN1CCN(CC/C=C2/c3ccccc3Sc3ccc(C(F)(F)F)cc32)CC1 | 4580 nM |
| CC(=O)[O][Hg][c]1ccccc1 | 2800 nM |
| O=C1[O][Bi][O]c2ccccc21 | > 20000 nM (inactive) |
